From PubChem BioAssay AID1963861 (Molecular Pharmacology Branch, DTP, NCI, 2024)

System: 885724-159-R-J1-PDC KRAS PDC multicell spheroid viability
Experiment: Anticancer human tumor 885724-159-R-J1-PDC patient-derived pancreatic adenocarcinoma cell line growth inhibition [KRAS2]
Conditions: for IC50: curve of first compound; for viability, T/C: stronger effect = lower value
Method in brief: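 Combination screen of spheroid viability in tumor-cell co-cultures with endothelial (HUVEC) and mesenchymal stem cell stroma. Each agent was tested in half-log dilutions, topping at clinical Cmax or at 10 microM without a known Cmax.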

[1] = second compound 0.1 µM, first compound 0.01 µM
[2] = second compound 0.1 µM, first compound 0.0316 µM
[3] = second compound 0.1 µM, first compound 0.1 µM
[4] = second compound 0.1 µM, first compound 0.316 µM
[5] = second compound 0.1 µM, first compound 1 µM
[6] = second compound 0.1 µM, first compound 3.16 µM
[7] = second compound 0.316 µM, first compound 0.01 µM
[8] = second compound 0.316 µM, first compound 0.0316 µM
[9] = second compound 0.316 µM, first compound 0.1 µM
[10] = second compound 0.316 µM, first compound 0.316 µM
[11] = second compound 0.316 µM, first compound 1 µM
[12] = second compound 0.316 µM, first compound 3.16 µM
[13] = second compound 1 µM, first compound 0.01 µM
[14] = second compound 1 µM, first compound 0.0316 µM
[15] = second compound 1 µM, first compound 0.1 µM
[16] = second compound 1 µM, first compound 0.316 µM
[17] = second compound 1 µM, first compound 1 µM
[18] = second compound 1 µM, first compound 3.16 µM
[19] = second compound 3.16 µM, first compound 0.01 µM
[20] = second compound 3.16 µM, first compound 0.0316 µM
[21] = second compound 3.16 µM, first compound 0.1 µM
[22] = second compound 3.16 µM, first compound 0.316 µM
[23] = second compound 3.16 µM, first compound 1 µM
[24] = second compound 3.16 µM, first compound 3.16 µM
[25] = second compound 10 µM, first compound 0.01 µM
[26] = second compound 10 µM, first compound 0.0316 µM
[27] = second compound 10 µM, first compound 0.1 µM
[28] = second compound 10 µM, first compound 0.316 µM
[29] = second compound 10 µM, first compound 1 µM
[30] = second compound 10 µM, first compound 3.16 µM
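Also: spheroids exposed to agents for 7 days before readout.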

SMILES: CC1COCCN1c1cc(-c2ccnn2C)c2ccnc(-c3ccn[nH]3)c2n1 (stereo not given) + CNCc1ccccc1-c1csc(C(C)Nc2nc(C)nc3cc(OC)c(OC)cc23)c1
- IC50 (second compound 0.1 µM): > 3.16 µM
- IC50 (second compound 0.316 µM): > 3.16 µM
- IC50 (second compound 1 µM): > 3.16 µM
- IC50 (second compound 3.16 µM): < 0.01 µM
- IC50 (second compound 10 µM): < 0.01 µM
- viability, T/C [1]: 108%
- viability, T/C [2]: 85.3%
- viability, T/C [3]: 80.1%
- viability, T/C [4]: 61.4%
- viability, T/C [5]: 58.8%
- viability, T/C [6]: 58.8%
- viability, T/C [7]: 108%
- viability, T/C [8]: 90.4%
- viability, T/C [9]: 73.8%
- viability, T/C [10]: 64.2%
- viability, T/C [11]: 57.8%
- viability, T/C [12]: 57.4%
- viability, T/C [13]: 106%
- viability, T/C [14]: 84.4%
- viability, T/C [15]: 75.1%
- viability, T/C [16]: 64.7%
- viability, T/C [17]: 55.7%
- viability, T/C [18]: 56.8%
- viability, T/C [19]: 2.14%
- viability, T/C [20]: 0.77%
- viability, T/C [21]: 0.58%
- viability, T/C [22]: 0.86%
- viability, T/C [23]: 1.55%
- viability, T/C [24]: 1.97%
- viability, T/C [25]: 0.21%
- viability, T/C [26]: 0.23%
- viability, T/C [27]: 0.26%
- viability, T/C [28]: 0.24%
- viability, T/C [29]: 0.22%
- viability, T/C [30]: 0.28%

SMILES: CCN1CCN(Cc2ccc(Nc3ncc(F)c(-c4cc(F)c5nc(C)n(C(C)C)c5c4)n3)nc2)CC1 + CNCc1ccccc1-c1csc(C(C)Nc2nc(C)nc3cc(OC)c(OC)cc23)c1
- IC50 (second compound 0.1 µM): > 1 µM
- IC50 (second compound 0.316 µM): > 1 µM
- IC50 (second compound 1 µM): > 1 µM
- IC50 (second compound 3.16 µM): < 0.00316 µM
- IC50 (second compound 10 µM): < 0.00316 µM
- viability, T/C (second compound 0.1 µM, first compound 0.00316 µM): 110%
- viability, T/C [1]: 100%
- viability, T/C [2]: 92.2%
- viability, T/C [3]: 86.8%
- viability, T/C [4]: 87.2%
- viability, T/C [5]: 96.9%
- viability, T/C (second compound 0.316 µM, first compound 0.00316 µM): 106%
- viability, T/C [7]: 94.8%
- viability, T/C [8]: 78.2%
- viability, T/C [9]: 83.4%
- viability, T/C [10]: 94%
- viability, T/C [11]: 90.9%
- viability, T/C (second compound 1 µM, first compound 0.00316 µM): 95%
- viability, T/C [13]: 96.3%
- viability, T/C [14]: 76.6%
- viability, T/C [15]: 78.3%
- viability, T/C [16]: 74.8%
- viability, T/C [17]: 71.2%
- viability, T/C (second compound 3.16 µM, first compound 0.00316 µM): 0.67%
- viability, T/C [19]: 1.81%
- viability, T/C [20]: 0.79%
- viability, T/C [21]: 4.1%
- viability, T/C [22]: 0.68%
- viability, T/C [23]: 0.56%
- viability, T/C (second compound 10 µM, first compound 0.00316 µM): 0.19%
- viability, T/C [25]: 0.32%
- viability, T/C [26]: 0.2%
- viability, T/C [27]: 0.19%
- viability, T/C [28]: 0.19%
- viability, T/C [29]: 0.28%

SMILES: CCNC(=O)CC1N=C(c2ccc(Cl)cc2)c2cc(OC)ccc2-n2c(C)nnc21 (stereo not given) + CNCc1ccccc1-c1csc(C(C)Nc2nc(C)nc3cc(OC)c(OC)cc23)c1
- IC50 (second compound 0.1 µM): > 10 µM
- IC50 (second compound 0.316 µM): > 10 µM
- IC50 (second compound 1 µM): > 10 µM
- IC50 (second compound 3.16 µM): < 0.0316 µM
- IC50 (second compound 10 µM): < 0.0316 µM
- viability, T/C [2]: 122%
- viability, T/C [3]: 114%
- viability, T/C [4]: 77.3%
- viability, T/C [5]: 63.2%
- viability, T/C [6]: 53.7%
- viability, T/C (second compound 0.1 µM, first compound 10 µM): 52.5%
- viability, T/C [8]: 118%
- viability, T/C [9]: 113%
- viability, T/C [10]: 81.9%
- viability, T/C [11]: 61.8%
- viability, T/C [12]: 55.1%
- viability, T/C (second compound 0.316 µM, first compound 10 µM): 48.3%
- viability, T/C [14]: 110%
- viability, T/C [15]: 116%
- viability, T/C [16]: 79.1%
- viability, T/C [17]: 59.7%
- viability, T/C [18]: 52.6%
- viability, T/C (second compound 1 µM, first compound 10 µM): 49.7%
- viability, T/C [20]: 1.45%
- viability, T/C [21]: 11.5%
- viability, T/C [22]: 1.37%
- viability, T/C [23]: 1.56%
- viability, T/C [24]: 0.16%
- viability, T/C (second compound 3.16 µM, first compound 10 µM): 0.43%
- viability, T/C [26]: 0.33%
- viability, T/C [27]: 0.2%
- viability, T/C [28]: 0.25%
- viability, T/C [29]: 0.16%
- viability, T/C [30]: 0.18%
- viability, T/C (second compound 10 µM, first compound 10 µM): 0.26%
